In PubChem BioAssay AID330 (DTP/NCI, 2004):
Toxic doses and inconclusive results are not listed. The calls were made as follows: active = survival T/C of 150% or more; inactive = T/C below 125% in these data.

System: P388 leukemia ip, CD2F1 mice, survival T/C
Assay: NCI In Vivo Anticancer Drug Screen. Data for tumor model P388 Leukemia (intraperitoneal) in CD2F1 (CDF1) mice
Settings: endpoint: median survival time, higher = longer survival
Summary of the method: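 Mice carrying the transplanted tumor received test compound or vehicle. Survival was recorded in each group, and the value is the treated-group measurement divided by that of the vehicle-treated control group.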

[1] = dose: 50.0 mg/kg/injection, schedule: Q01DX009 (ip), vehicle: water
[2] = dose: 100.0 mg/kg/injection, schedule: Q01DX009 (ip), vehicle: saline with Tween-80
[3] = dose: 50.0 mg/kg/injection, schedule: Q01DX009 (ip), vehicle: Klucel (hydroxypropylcellulose) (HPC)
[4] = dose: 100.0 mg/kg/injection, schedule: Q01DX009 (ip), vehicle: Klucel (hydroxypropylcellulose) (HPC)
[5] = dose: 200.0 mg/kg/injection, schedule: Q01DX009 (ip), vehicle: Klucel (hydroxypropylcellulose) (HPC)
[6] = dose: 60.0 mg/kg/injection, schedule: Q01DX005 (ip), vehicle: saline with Tween-80
[7] = dose: 120.0 mg/kg/injection, schedule: Q01DX005 (ip), vehicle: saline with Tween-80

Measured: T/C

COc1cc2c[n+]3c4c(cccc4c2cc1OC)CC3
inactive: dose: 25.0 mg/kg/injection, schedule: Q01DX009 (ip), vehicle: water 108 % of control | [1] 118 % of control | dose: 100.0 mg/kg/injection, schedule: Q01DX009 (ip), vehicle: water 114 % of control

CCC(SC)C(=O)c1ccccc1 (centres undefined)
inactive: dose: 25.0 mg/kg/injection, schedule: Q01DX009 (ip), vehicle: saline with Tween-80 114 % of control | dose: 50.0 mg/kg/injection, schedule: Q01DX009 (ip), vehicle: saline with Tween-80 100 % of control | [2] 101 % of control

O=C1C=CC(=C2SCCS2)C(O)=C1
inactive: [3] 100 % of control | [4] 93 % of control | [5] 97 % of control

CC1=CC2C(O)(CC3(COC(=O)/C=C/c4ccccc4)OC3C3C4C(C)(C)C4(OC(=O)/C=C/c4ccccc4)C(OC(=O)/C=C/c4ccccc4)C(C)C32O)C1=O (centres undefined)
inactive: dose: 0.2 mg/kg/injection, schedule: Q01DX005 (ip), vehicle: saline + alcohol 100 % of control | dose: 0.4 mg/kg/injection, schedule: Q01DX005 (ip), vehicle: saline + alcohol 100 % of control | dose: 0.8 mg/kg/injection, schedule: Q01DX005 (ip), vehicle: saline + alcohol 100 % of control | dose: 1.6 mg/kg/injection, schedule: Q01DX005 (ip), vehicle: saline + alcohol 98 % of control | dose: 3.2 mg/kg/injection, schedule: Q01DX005 (ip), vehicle: saline + alcohol 104 % of control

CCc1nc(N)nc(N)c1-c1ccc(N2CCNCC2)c([N+](=O)[O-])c1
inactive: [6] 106 % of control | [7] 112 % of control

CN1CC(=O)NC2(CCCC2)C1=O
inactive: dose: 37.5 mg/kg/injection, schedule: Q04DX002 (ip), vehicle: Klucel (hydroxypropylcellulose) (HPC) 102 % of control | dose: 75.0 mg/kg/injection, schedule: Q04DX002 (ip), vehicle: Klucel (hydroxypropylcellulose) (HPC) 101 % of control | dose: 150.0 mg/kg/injection, schedule: Q04DX002 (ip), vehicle: Klucel (hydroxypropylcellulose) (HPC) 99 % of control | dose: 300.0 mg/kg/injection, schedule: Q04DX002 (ip), vehicle: Klucel (hydroxypropylcellulose) (HPC) 105 % of control

CC1=C(/C=C/C(C)=C/C=C/C(C)=C/C=C/C=C(C)/C=C/C=C(\C)C=O)C(C)(C)CCC1
inactive: [6] 101 % of control | [7] 92 % of control | dose: 240.0 mg/kg/injection, schedule: Q01DX005 (ip), vehicle: saline with Tween-80 94 % of control

COc1cc2c(cc1O)C(CSC)Cc1cc(OC)c(OC)cc1N(C)CCC2 (centres undefined)
inactive: dose: 100.0 mg/kg/injection, schedule: Q04DX003 (ip), vehicle: saline with Tween-80 93 % of control | dose: 200.0 mg/kg/injection, schedule: Q04DX003 (ip), vehicle: saline with Tween-80 87 % of control | dose: 400.0 mg/kg/injection, schedule: Q04DX003 (ip), vehicle: saline with Tween-80 100 % of control

Nc1ncnc2c1c1c(=O)[nH]cnc1n2C1OC(CO)C(O)C1O (centres undefined)
inactive: dose: 3.13 mg/kg/injection, schedule: Q01DX009 (ip), vehicle: water 107 % of control | dose: 6.25 mg/kg/injection, schedule: Q01DX009 (ip), vehicle: water 113 % of control | dose: 12.5 mg/kg/injection, schedule: Q01DX009 (ip), vehicle: water 114 % of control | [1] 116 % of control

N=C(/C(=C/c1ccccc1)c1ccccc1)c1ccccc1
inactive: [3] 107 % of control | [4] 113 % of control | [5] 118 % of control

C=C1CC[C@@H]2C(C)(C)CCC[C@@]2(C)[C@@H]1Cc1cc(O)ccc1O
inactive: dose: 10.0 mg/kg/injection, schedule: Q01DX009 (ip), vehicle: Klucel (hydroxypropylcellulose) (HPC) 104 % of control | dose: 20.0 mg/kg/injection, schedule: Q01DX009 (ip), vehicle: Klucel (hydroxypropylcellulose) (HPC) 110 % of control | dose: 40.0 mg/kg/injection, schedule: Q01DX009 (ip), vehicle: Klucel (hydroxypropylcellulose) (HPC) 116 % of control

C=CCNC(=S)NCC
inactive: [2] 100 % of control | dose: 200.0 mg/kg/injection, schedule: Q01DX009 (ip), vehicle: saline with Tween-80 104 % of control | dose: 400.0 mg/kg/injection, schedule: Q01DX009 (ip), vehicle: saline with Tween-80 109 % of control

C=C1CCC2C(c3c(C)c(O)c4c(c31)C(=O)C(C)C4)C2(C)C (centres undefined)
inactive: dose: 3.0 mg/kg/injection, schedule: Q01DX009 (ip), vehicle: Klucel (hydroxypropylcellulose) (HPC) 110 % of control | dose: 6.0 mg/kg/injection, schedule: Q01DX009 (ip), vehicle: Klucel (hydroxypropylcellulose) (HPC) 108 % of control | dose: 12.0 mg/kg/injection, schedule: Q01DX009 (ip), vehicle: Klucel (hydroxypropylcellulose) (HPC) 103 % of control | dose: 24.0 mg/kg/injection, schedule: Q01DX009 (ip), vehicle: Klucel (hydroxypropylcellulose) (HPC) 108 % of control

COc1c(OC)c(OC)c(-c2cc(=O)c3c(OC)cccc3o2)c(OC)c1OC
inactive: dose: 25.0 mg/kg/injection, schedule: Q01DX005 (ip), vehicle: distilled water + Tween-80 + alcohol 102 % of control | dose: 50.0 mg/kg/injection, schedule: Q01DX005 (ip), vehicle: distilled water + Tween-80 + alcohol 96 % of control | dose: 100.0 mg/kg/injection, schedule: Q01DX005 (ip), vehicle: distilled water + Tween-80 + alcohol 95 % of control

CC1CC[P+](C)(c2ccccc2)c2ccccc21 (centres undefined)
inactive: dose: 6.25 mg/kg/injection, schedule: Q04DX002 (ip), vehicle: saline 100 % of control | dose: 12.5 mg/kg/injection, schedule: Q04DX002 (ip), vehicle: saline 103 % of control

O=[N+]([O-])c1cc2c(cc1C=Nc1ccc(O)cc1)OCO2
inactive: dose: 12.5 mg/kg/injection, schedule: Q01DX009 (ip), vehicle: other 113 % of control | dose: 25.0 mg/kg/injection, schedule: Q01DX009 (ip), vehicle: other 117 % of control | dose: 50.0 mg/kg/injection, schedule: Q01DX009 (ip), vehicle: other 113 % of control | dose: 100.0 mg/kg/injection, schedule: Q01DX009 (ip), vehicle: other 96 % of control | dose: 200.0 mg/kg/injection, schedule: Q01DX009 (ip), vehicle: other 110 % of control | dose: 400.0 mg/kg/injection, schedule: Q01DX009 (ip), vehicle: other 113 % of control

O=c1c2ccccc2c(=O)c2c1ccc1[nH]c3ccccc3n(-c3ccccc3)c12
inactive: dose: 50.0 mg/kg/injection, schedule: Q01DX005 (ip), vehicle: Klucel (hydroxypropylcellulose) (HPC) 101 % of control | dose: 100.0 mg/kg/injection, schedule: Q01DX005 (ip), vehicle: Klucel (hydroxypropylcellulose) (HPC) 100 % of control | dose: 200.0 mg/kg/injection, schedule: Q01DX005 (ip), vehicle: Klucel (hydroxypropylcellulose) (HPC) 100 % of control

CCc1nc(N)nc(N)c1-c1ccc2c(c1)nnn2C1CCCCC1
inactive: dose: 50.0 mg/kg/injection, schedule: Q01DX005 (ip), vehicle: saline with Tween-80 100 % of control | dose: 100.0 mg/kg/injection, schedule: Q01DX005 (ip), vehicle: saline with Tween-80 100 % of control | dose: 200.0 mg/kg/injection, schedule: Q01DX005 (ip), vehicle: saline with Tween-80 87 % of control

O=C1C2(Cl)C(Cl)=C(Cl)C1(Cl)C1(Cl)C(Cl)=C(Cl)C(=O)C21Cl (centres undefined)
inactive: dose: 10.0 mg/kg/injection, schedule: Q01DX009 (ip), vehicle: saline with Tween-80 104 % of control | dose: 20.0 mg/kg/injection, schedule: Q01DX009 (ip), vehicle: saline with Tween-80 104 % of control | dose: 40.0 mg/kg/injection, schedule: Q01DX009 (ip), vehicle: saline with Tween-80 100 % of control

COC1/C=C\OC2(C)Oc3c(C)c(O)c4c(O)c(c5sc(N)nc5c4c3C2=O)NC(=O)/C(C)=C\C=C\C(C)C(O)C(C)C(O)C(C)C(OC(C)=O)C1C (centres undefined)
inactive: dose: 25.0 mg/kg/injection, schedule: Q01DX009 (ip), vehicle: Klucel (hydroxypropylcellulose) (HPC) 100 % of control | [3] 102 % of control | [4] 100 % of control | [5] 100 % of control

CN=C1N=C(c2ccc(C(C)(C)C)cc2)C(O)(c2ccc(C(C)(C)C)cc2)N1 (centres undefined)
inactive: dose: 25.0 mg/kg/injection, schedule: Q04DX002 (ip), vehicle: saline with Tween-80 104 % of control | dose: 50.0 mg/kg/injection, schedule: Q04DX002 (ip), vehicle: saline with Tween-80 117 % of control

CC(C)CC([N+](C)(C)C)P(=O)([O-])O (centres undefined)
inactive: dose: 100.0 mg/kg/injection, schedule: Q01DX009 (ip), vehicle: saline 100 % of control | dose: 200.0 mg/kg/injection, schedule: Q01DX009 (ip), vehicle: saline 95 % of control | dose: 400.0 mg/kg/injection, schedule: Q01DX009 (ip), vehicle: saline 100 % of control

OCCN1CCN(c2c3ccccc3nc3ccccc23)CC1
inactive: dose: 25.0 mg/kg/injection, schedule: Q04DX003 (ip), vehicle: saline 100 % of control | dose: 50.0 mg/kg/injection, schedule: Q04DX003 (ip), vehicle: saline 100 % of control
